Data as given in article PMC10463259, “Efficient NADPH-dependent dehalogenation afforded by a self-sufficient reductive dehalogenase” (The Journal of Biological Chemistry, 2023).
Values belong to the molecule of their own block, whether it stands above or below them.

What was measured:
[1] = molecular target: T1, JtRdhA (reductive dehalogenase) (Jhaorihella thermophila, UniProt A0A1H5TYU2); experiment: substrate turnover by purified enzyme, NADPH consumption and HPLC; assay type: biochemical
T1 construct: gene SAMN05421751_103106; full-length, N-terminal His-MBP-TEV fusion (JtRdhA^MBP), WP_104007082
T1 sequence (A0A1H5TYU2 1-1069): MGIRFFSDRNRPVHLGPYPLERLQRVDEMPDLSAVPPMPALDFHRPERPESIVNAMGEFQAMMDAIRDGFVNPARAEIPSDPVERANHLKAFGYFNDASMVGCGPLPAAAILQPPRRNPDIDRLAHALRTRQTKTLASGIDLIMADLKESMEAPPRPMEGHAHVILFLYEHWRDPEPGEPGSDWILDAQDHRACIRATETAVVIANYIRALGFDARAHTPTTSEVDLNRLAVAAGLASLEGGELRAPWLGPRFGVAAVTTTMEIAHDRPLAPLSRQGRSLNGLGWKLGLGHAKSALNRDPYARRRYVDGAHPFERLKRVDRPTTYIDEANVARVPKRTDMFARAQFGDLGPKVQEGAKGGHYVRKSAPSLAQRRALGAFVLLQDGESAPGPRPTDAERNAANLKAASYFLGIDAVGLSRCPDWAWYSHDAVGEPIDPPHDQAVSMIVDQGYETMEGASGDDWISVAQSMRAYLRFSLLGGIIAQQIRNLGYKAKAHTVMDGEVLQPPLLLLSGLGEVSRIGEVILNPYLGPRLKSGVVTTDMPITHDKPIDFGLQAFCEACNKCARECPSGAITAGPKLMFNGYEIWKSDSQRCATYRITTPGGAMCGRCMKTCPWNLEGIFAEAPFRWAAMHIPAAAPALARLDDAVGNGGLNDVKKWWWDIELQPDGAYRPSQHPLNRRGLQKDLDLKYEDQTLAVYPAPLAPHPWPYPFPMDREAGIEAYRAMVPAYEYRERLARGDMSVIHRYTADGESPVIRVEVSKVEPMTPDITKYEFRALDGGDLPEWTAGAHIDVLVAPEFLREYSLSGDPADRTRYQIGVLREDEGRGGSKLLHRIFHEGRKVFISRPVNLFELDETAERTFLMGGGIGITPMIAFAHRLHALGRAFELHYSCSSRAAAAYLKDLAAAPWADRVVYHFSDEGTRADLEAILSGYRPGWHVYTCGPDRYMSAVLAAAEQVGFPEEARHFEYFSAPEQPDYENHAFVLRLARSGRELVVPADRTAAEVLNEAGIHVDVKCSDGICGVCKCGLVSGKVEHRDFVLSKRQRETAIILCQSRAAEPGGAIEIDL

[2] = molecular target: T1, JtRdhA (reductive dehalogenase); experiment: NADPH consumption assay, Dixon plot vs 35-DB-4-OH; assay type: biochemical
[3] = molecular target: T1, JtRdhA (reductive dehalogenase); experiment: biphasic turnover assay, LC-MS of debrominated products; assay type: biochemical
[4] = substrate: O=C(O)c1ccc(O)c(Br)c1; experiment: steady-state kinetics by NADPH consumption (KM), purified enzyme; assay type: biochemical, Jhaorihella thermophila; conditions: cobalamin, 2x [4Fe-4S], [2Fe-2S], FMN
[5] = substrate: O=C(O)c1cc(Br)c(O)c(Br)c1; experiment: EPR of cob(II)alamin with substrate (Br superhyperfine coupling); KM from steady-state NADPH oxidation; assay type: biochemical, Jhaorihella thermophila; conditions: cobalamin, 2x [4Fe-4S], [2Fe-2S], FMN active site; displaces chloride, substrate bromine atoms less than […] Å from the Co2+ ion

Molecule: Oc1ccccc1I [2-Iodophenol, 2-iodophenol]
NADPH consumption μM min^-1 [1]: 106 ± 3 µM/min

NADPH consumption μM min^-1 [1]: 124 ± 8 µM/min
Molecule: O=C(O)c1cc(I)c(O)c(I)c1 [3,5 Diiodo-4-hydroxybenzoic acid]

NADPH consumption μM min^-1 [1]: 147 ± 3 µM/min
Molecule: O=C(O)Cc1ccc(O)c(Br)c1 [3-bromo-4-hydroxyphenylacetic acid]

Molecule: O=C(O)c1cc(Cl)c(O)c(Cl)c1 [35-DC-4-OH, 3,5-dichloro-4-hydroxybenzoic acid]
Ki [2]: 13.7 ± 3.6 µM

Molecule: CC(C)(c1cc(Br)c(O)c(Br)c1)c1cc(Br)c(O)c(Br)c1 [compound 1, tetrabromobisphenol A]
biphasic turnover assay, LC-MS of debrominated products [3]: one of the most commonly used flame retardants TBBPA was determined to be a substrate for JtRdhA^MBP

B1: JtRdhA (reductive dehalogenase) (Jhaorihella thermophila) (protein)
chain: T1 sequence (A0A1H5TYU2 1-1069)
notes: full-length, N-terminal His-MBP-TEV fusion (JtRdhA^MBP), WP_104007082
Km [4]: 21 ± 0.2 µM
Km [5]: 19 ± 0.7 µM
